In this assay the test system is DU-145 cells. In words: Cell proliferation assay (Alamar-Blue), proliferation inhibition of DU-145 cells. It is filed as cell-based. Particulars: Homo sapiens, 72 h, 3 days incubation, Alamar-Blue fluorescence. As for the experimental part:
Protocol for Cell Proliferation Assay:
This homogeneous assay involves simply adding a single reagent, the Alamar-Blue, to the cell culture and measuring the fluorescence intensity (excitation wavelength=530 nm, emission wavelength=590 nm) after an incubation step. The Alamar-Blue reagent utilizes the redox dye resazurin, which is not fluorescent, but upon reduction by metabolically active cells is converted into a highly fluorescent product (resorufin). A decrease in fluorescence in the presence of a test compound indicates reduced proliferation. This change in signal is proportional to the number of viable cells and used as a measure of relative cytotoxicity. Therefore, the fluorescence intensity observed in this assay is a true measure of the viable proliferative cells.
• 2 mM stock of Paclitaxel in DMSO. • DMSO (Panreac, Cat. number 141954.1611) • Resazurin sodium salt (Sigma, R-7071). 50 mM stock in DMSO. Equipment • Biomek FX Laboratory Automated Workstation (Beckman Coulter Inc., Fullerton, Calif.) • CO2 incubator (VWR Science, USA) • Bright line Hemacytometer (Z359629, Sigma, IL, USA) Materials • 384-deep well plates (Greiner, N^o 781270) • 384-well optical bottom tissue culture plates (Greiner, No. 82051-282) Propagation CONDITIONS: 37° C., air 95%; carbon dioxide (CO2) 5%, humidified atmosphere. Subculturing: • Cells were grown in 175 cm^2 flasks to 90-100% of confluency. • Culture medium (RPMI-1640 (Paneco, C310)+10% fetal bovine serum (FBS)) was aspirated and cell layer was briefly rinsed with 0.53 mM EDTA (ethylenediaminetetraacetic acid) solution to remove all traces of serum. • 2 ml of 0.2% trypsin/0.53 mM EDTA solution was added to cells. • Flasks were returned to incubator for 5 min to allow cells detachment. • Add 6.0 ml of culture medium. • Single cell suspension was created by gently pipetting. • Cells are counted using a Hematocytometer and suspension with desirable cell concentration is prepared.
To test proliferation inhibition DU-145 cells were plated in 384-well plate at the density 4000 cells/well. Next day 4 mM solutions of compounds in DMSO were diluted 100 times in medium and added to cells to final concentration 20 uM (40 ul of cells+40 ul of compounds). Taxol at final concentration 1 uM was used as positive control. Cells were incubated with compounds for 3 days. After that Alamar-Blue was added to cells to final concentration of 50 uM. After incubation for 4-6 hours at 37° C., fluorescence in plate was read using fluorescence plate reader Wallac 1420 (530 nm excitation filter, 590 nm emission filter). Proliferation inhibition was calculated using formula: % INH=100*((Fnegative−compound signal)/(Fnegative−Fpositive)), • Fnegative—DMSO was added to cells (viable cells) • Fpositive—taxol (1 uM) was added to cells (number of cells at the first day of incubation)
In general terms: The colour change of resazurin is a common sign of viable cells or microbes.

As to `COc1cc(C(=O)N2CCc3cc4ccccc4nc32)cc(OC)c1OC` [Example 1, 2,3-dihydro-1H-pyrrolo[2,3-b]quinolin-1-yl(3,4,5-trimethoxyphenyl)methanone], the half-maximal inhibitory concentration (IC50) worked out at 0.114 µM.

In turn, `COc1ccc(C(=O)N2CCc3cc4cc(C)ccc4nc32)cc1OC` [Example 2, (3,4-dimethoxyphenyl)(6-methyl-2,3-dihydro-1H-pyrrolo[2,3-b]quinolin-1-yl)methanone] had an IC50 of 0.183 µM.

Molecule `COc1cccc(C(=O)N2CCc3cc4cc(C)ccc4nc32)c1` [Example 3, (3-methoxyphenyl)(6-methyl-2,3-dihydro-1H-pyrrolo[2,3-b]quinolin-1-yl)methanone] came in with an IC50 of 0.613 µM.

Consider `COc1ccccc1C(=O)N1CCc2cc3ccccc3nc21` [Example 4, 2,3-dihydro-1H-pyrrolo[2,3-b]quinolin-1-yl(2-methoxyphenyl)methanone], for which it took 3.62 µM to reach half-maximal inhibition (IC50).

For the molecule `Cc1ccc(C(=O)N2CCC=c3cc(C)c4c(c32)C=CN=4)cc1` [Example 5, (6-methyl-2,3-dihydro-1H-pyrrolo[2,3-h]quinolin-1-yl)(4-methylphenyl)methanone], the IC50 worked out at 10.3 µM.

Molecule `COc1ccccc1C(=O)N1CCc2cc3cccc(C)c3nc21` [Example 6, (2-methoxyphenyl)(8-methyl-2,3-dihydro-1H-pyrrolo[2,3-b]quinolin-1-yl)methanone] showed an IC50 of 16.1 µM.

The molecule `CC1=Cc2c3c(ccc2=N1)=CCCN3C(=O)c1ccccc1C` [Example 7, (8-methyl-2,3-dihydro-1H-pyrrolo[2,3-h]quinolin-1-yl)(2-methylphenyl)methanone] returned an IC50 of 17.2 µM.

In turn, `Cc1cccc2cc3c(nc12)N(C(=O)c1ccccc1F)CC3` [Example 8, (2-fluorophenyl)(8-methyl-2,3-dihydro-1H-pyrrolo[2,3-b]quinolin-1-yl)methanone] displayed an IC50 of 134 µM.

On to `O=C(c1ccccc1Br)N1CCc2cc3ccccc3nc21` [Example 9, (2-bromophenyl)(2,3-dihydro-1H-pyrrolo[2,3-b]quinolin-1-yl)methanone], for which the IC50 came out at 238 µM.

Consider `CC1=Cc2c3c(ccc2=N1)=CCCN3C(=O)c1cccc(F)c1` [Example 10, (3-fluorophenyl)(8-methyl-2,3-dihydro-1H-pyrrolo[2,3-h]quinolin-1-yl)methanone], for which the IC50 is 4400 µM.

As for `Cc1cccc2cc3c(nc12)N(C(=O)c1ccccc1Br)CC3` [Example 11, (2-bromophenyl)(8-methyl-2,3-dihydro-1H-pyrrolo[2,3-b]quinolin-1-yl)methanone], 15000 µM corresponded to half-maximal inhibition (IC50).

As a reminder, the IC50 is the point on the concentration scale where inhibition reaches its midpoint. Read a high IC50 as a need for much substance.

These data come from US8420815B1, “Anti-cancer agents based on N-acyl-2, 3-dihydro-1H-pyrrolo[2,3-b]quinoline derivatives and a method of making” (U.S. Department of Energy, priority 2010, dated 2013).
